Laboratory results as given in patent US10080761B2, “Method for treating recurring skin and mucous membrane diseases caused by HSV-1 and HSV-2” (priority 2013, dated 2018).

Tested on: HSV-1 or HSV-2 infection
Assay: Treatment of a herpes relapse in patients with medium or severe recurring form (Example 1)
Type: in vivo
Settings: many years of earlier treatment, cream and pills

Compound: Nc1nc2c(ncn2COCCO)c(=O)[nH]1 [Aciclovir]
- reduction of the number of relapses by previously used preparations: did not reduce the number of relapses
